Data from patent publication US20260069694A1, “IDENTIFICATION OF HIGHLY IMMUNOSUPRESIVE TREG POPULATION IN TUMOR MICROENVIRONMENTS” (THE TRUSTEES OF COLUMBIA UNIVERSITY IN THE CITY OF NEW YORK, priority 2023, published 2026).
“Also recorded” adds a separate entry of the source.

Columns and labels:
Assay type in all cases: in vivo, mouse
[1] = tested on: orthotopic KPC-derived PDAC tumors; test: Treatment study in orthotopic syngeneic KPC-derived PDAC mice: tumor weight; conditions: 3 times a week for 2 weeks
Experimental: Syngeneic PDAC mice were generated by orthotopic pancreatic injections of 5.0×10^5 KPC-derived PDAC cells into 8- to 10-week-old C57B6129SF1/J hybrid mice (Jackson™), which are the offspring of a cross between C57BL/6J females and 129S1/SvImJ males. In some experiments, the tumor growth was measured by luminescence imaging.
(§1) The treatment studies in orthotopic syngeneic PDAC mice were performed as follows. Eight days after orthotopic implantation of 5.0×10^5 KPC-derived PDAC cells, the mice were randomized into respective treatment cohorts, such as intravenous (IV) phosphate buffered saline (PBS) alone, IV iRGD alone (300 μg/25 g), IV PBS+IP antimouse PD-L1 mAb (200 μg/mouse; clone MIH6; BioLegend™), IV iRGD+IP anti-mouse PD-L1 mAb, IV PBS+IV Gem (4 mg/kg; MilliporeSigma™), and IV iRGD+IV GEM+IP anti-mouse PD-L1 mAb. The treatment was given 3 times a week for 2 weeks starting 8 days after tumor cell implantation. The tumors and major organs were harvested at the end of the studies on day 22, weighed, and processed for flow cytometry, IF, and IHC. The treatment studies were terminated according to the guidelines by the IACUC at Columbia University. Treatment studies in transgenic KPC mice were performed as previously described.
C57B6129SF1/J hybrid mice bearing orthotopic KPC-derived PDAC tumors were treated with PBS or iRGD 3 times a week for 2 weeks. […]

[2] = tested on: Tregs and CD8+ T cells in PDAC tissue and spleen; test: Orthotopic KPC-derived PDAC mice: flow cytometry and IF of T cells in tumor and spleen
Experimental: as §1
Tumors from orthotopic PDAC mice were minced into 2-4 mm pieces and added with an enzyme mix from a tumor dissociation kit (Miltenyi Biotec™) in Roswell Park Memorial Institute medium 1640 (Cytiva™). The tissues were dissociated using a gentle MACS Dissociator (Miltenyi Biotec™) followed by a 40-minute incubation at 37° C. The samples were then centrifuged for 10 minutes at 3000×g in the presence of debris removal solution (Miltenyi Biotec™) and 10 minutes at 1000×g in cooled PBS. The supernatant was aspirated to remove the debris. Splenocytes were prepared by gently grinding the spleen and filtrating the resulting cell suspension through a 40 μm cell strainer. Red cells were lysed with an ACK lysing buffer (Thermo Fisher Scientific™
Immune cells isolated from the tumor or spleen, or cells cultured in vitro were tested for surface marker by staining with the following reagents for 20 minutes at 4° C.: Brilliant Violet 650™-conjugated anti-mouse CD3 Ab (clone 17A2; BioLegend), PerCP/Cyanine5.5-conjugated anti-mouse CD4 Ab (clone GK1.5; BioLegend™), PE/Cyanine7-conjugated antimouse CD8a Ab (clone 53-6.7; BioLegend™), PE-conjugated anti-mouse CD25 Ab (clone 7D4; Miltenyi Biotec™), PE/Cyanine7-conjugated anti-mouse CD25 Ab (clone PC61; BioLegend™), Brilliant Violet 421™ or 711™-conjugated anti-mouse CD304/NRP-1 Ab (clone 3E12; BioLegend™), Alexa Fluor® 647-conjugated anti-mouse integrin αvβ5 Ab (clone ALULA; BD Biosciences™), PE-conjugated anti-mouse CD198 (CCR8) Ab (clone SA214G2; BioLegend™), Zombie NIR™ (BioLegend™), or Aqua™ Fixable Viability Kit (BioLegend™). Intracellular staining of immune cells was performed using the following Abs and a Foxp3 staining buffer kit (eBioscience) according to the manufacturer's instructions: Brilliant Violet 421™-conjugated anti-Foxp3 Ab (FJK-16s; eBioscience™) Pacific Blue™-conjugated anti-mouse Foxp3 Ab (clone MF-14; BioLegend™), cleaved caspase-3 (Asp175) (5A1E) rabbit mAb (Cell Signaling™), and Alexa Flour™ 488-conjugated donkey anti-rabbit secondary Ab (Thermo Fisher Scientific™)
The Effect of iRGD Therapy on the Proportion of CD8+ T cells, Tregs, and Non-Treg CD4+ T Cells in the PDAC Tissue and the Spleen was tested. C57B6129SF1/J hybrid mice bearing orthotopic KPCderived PDAC tumors were treated with PBS or iRGD 3 times a week for 2 weeks. The tumors and spleen were collected 3, 7 and 14 days after the treatment was started. The proportion of CD8+ T cells, CD4+CD25+ T cells (Tregs), and CD4+CD25neg T cells (non-Tregs) in the tumors (FIG. 6A) and the spleen (FIG. 6B) were analyzed by flow cytometry (n=3 per arm).
In addition, C57B6129SF1/J hybrid mice bearing KPC-derived orthotopic PDAC tumors were intravenously treated with PBS or iRGD 3 times a week for 2 weeks. Tumors and spleen were collected at 3, 7 and 14 days after the treatment was started. […]

huPDAC tumors = test: Humanized PDAC (huPDAC) mice treated with iRGD monotherapy
Text: In summary, this report conveys an important concept of tumor-specific Treg targeting, which can be achieved using an affinity probe that targets the αvβ5 integrin expressed on tumor-resident Tregs. […] The immune system of huPDAC mice is replaced by functional human immune cells, which react to antigens in a human-leukocyte antigen (HLA)-restricted manner, allowing us to study the response of human immunity against human PDAC in mice. […] Our finding that patient-derived PDAC tissue also harbors αvβ5 integrin- and NRP-1-positive Tregs further supports the argument that iRGD-mediated Treg targeting can be achieved in human PDAC patients. Clinical trials are now being organized to explore the therapeutic benefit of adding an ICB to iRGD-based chemotherapy in PDAC patients.

Sequence: CRGDKGPDC [iRGD]
- tumor growth (tumor weight at end of study) [1]: did not inhibit tumor growth; also recorded: did not affect tumor growth
- proportion of Tregs in the PDAC tissue ([2]; CD4+CD25+ Tregs among CD4+ T cells, tumor, in 7 days, vs PBS): significantly reduced the proportion of Tregs
- CD8/Treg ratio in the spleen ([2]; spleen of the PDAC mice): did not affect
- proportion of CD8+ T cells in the spleen ([2]; spleen of the PDAC mice): did not affect
- proportion of Tregs in the spleen ([2]; spleen of the PDAC mice): did not affect
- proportion of CD8+ T cells in the PDAC tissue ([2]; tumor, flow cytometry, vs PBS): increased the proportion of CD8+ T cells
- CD8/Treg ratio in the PDAC tissue ([2]; tumor, in 7 days, vs PBS): significantly increased the CD8/Treg ratio
- CD8/Treg ratio in the huPDAC tumors (huPDAC tumors): increased the CD8/Treg ratio in the tumors
